Data published in ChEMBL document CHEMBL1201862, “PubChem BioAssay data set” (2004).
Calls of active or inactive are those of the source.

Tests used:
[1] = target: COUP transcription factor 2 (Homo sapiens, UniProt P24468); experiment: Luminescence-based cell-based high throughput dose response assay to identify inhibitors of COUP-TFII (NR2F2).; assay type: functional;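 also: HEK293 cells transiently cotransfected with COUP-TFII expression vector and reporter; luciferase reporter luminescence driven by COUP-TFII from the pX2-168 reporter plasmid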
[2] = target: T1, Heat shock factor protein 1 (Mus musculus, UniProt P38532); experiment: inhibition of MG132-induced HSE-luciferase signal, confirmation, cell-based, NIH3T3, luminescence, dose retest (AID 2382); assay type: functional;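 also: NIH3T3 fibroblasts with HSF1-driven luciferase reporter stressed by proteasome inhibitor MG132; luminescence from HSF1-driven luciferase expression after 8 hours of MG132 stress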
T1 sequence (P38532 whole entry): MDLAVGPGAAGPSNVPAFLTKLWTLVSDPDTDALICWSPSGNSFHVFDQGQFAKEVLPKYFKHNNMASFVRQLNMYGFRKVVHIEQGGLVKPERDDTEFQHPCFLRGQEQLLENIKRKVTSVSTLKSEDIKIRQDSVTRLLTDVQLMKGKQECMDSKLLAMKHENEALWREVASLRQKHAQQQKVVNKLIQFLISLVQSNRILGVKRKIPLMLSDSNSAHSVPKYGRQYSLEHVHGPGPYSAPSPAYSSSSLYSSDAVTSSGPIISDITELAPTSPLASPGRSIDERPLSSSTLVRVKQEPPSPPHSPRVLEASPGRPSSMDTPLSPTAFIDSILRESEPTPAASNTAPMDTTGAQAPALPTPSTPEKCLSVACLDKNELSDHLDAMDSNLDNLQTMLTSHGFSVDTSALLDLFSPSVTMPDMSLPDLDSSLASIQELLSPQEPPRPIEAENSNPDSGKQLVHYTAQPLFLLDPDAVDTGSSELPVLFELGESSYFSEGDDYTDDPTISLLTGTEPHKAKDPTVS

[3] = target: T2, Disintegrin and metalloproteinase domain-containing protein 17 (Homo sapiens, UniProt P78536); experiment: ADAM17 protease inhibitors, dose response, counter-screen for ADAM10 exosite inhibitor project, biochemical, quenched FRET substrate (AID 743253)
[4] = target: Delta-type opioid receptor (Homo sapiens, UniProt P41143); experiment: Late-stage results from the probe development effort to identify antagonists of OPRK1: fluorescence-based cell-based dose response OPRD1 counterscreen, Set 2.; assay type: functional
Mu-type opioid receptor = Mu-type opioid receptor (Homo sapiens, UniProt P35372); experiment: Late-stage results from the probe development effort to identify antagonists of OPRK1: luminescence-based cell-based dose response OPRM1 counterscreen, Set 2.; assay type: functional
[5] = target: Kappa-type opioid receptor (Homo sapiens, UniProt P41145); experiment: Late-stage fluorescence-based cell-based dose response assay for antagonists of kappa opioid receptor 1 (OPRK1).; assay type: functional
[6] = target: Sphingosine 1-phosphate receptor 1 (Homo sapiens, UniProt P21453); experiment: Late-stage counterscreen for antagonists of kappa opioid receptor 1 (OPRK1): fluorescence-based cell-based dose response assay to identify antagonists of Sphingosine 1-Phosphate Receptor 1 (S1P1).; assay type: functional
Major prion protein = Major prion protein (Homo sapiens, UniProt P04156); assay type: functional, cell-based
[7] = HepG2 cell cytotoxicity, dose response, cytotoxicity control, plate reader, cherry-pick, antagonist series (AID 743416); assay type: functional, cell-based
[8] = MC4R antagonists, dose response, counter-screen for LGR2 antagonist project, cell-based, plate reader, cherry pick (AID 743444); assay type: functional;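 also: transfected HEK 293 cells stimulated with alpha-MSH peptide; potency of inhibitors of the alpha-MSH evoked signal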
[9] = HEK293 cell cytotoxicity, dose response, cytotoxicity control, plate reader, cherry-picked samples (AID 743446); assay type: functional, cell-based
[10] = LGR2 antagonists, dose response, cell-based, HEK293, CRE-luciferase reporter, cherry pick, set 2 (AID 743343); assay type: functional;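 also: transfected cells were stimulated with diluted bursicon conditioned medium after compound addition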
[11] = A549 cell cytotoxicity, dose response, cytotoxicity control, plate reader, cherry-pick, antagonist series (AID 743412); assay type: functional, cell-based
[12] = cytotoxicity in HEK-293T cells, dose response, cytotoxicity control for TCR NF-kB inhibitor project, luminescence, T-cell screen hits (AID 489026); assay type: functional, cell-based;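 also: cells exposed to compound about 14 hours before the viability readout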
[13] = inhibitors of SNCA 5'UTR-driven reporter translation, confirmation, H4 neuroglioma cells, luminescence (AID 1988); assay type: functional, cell-based
[14] = inhibitors of firefly luciferase expression or activity, dose response, H4 neuroglioma cells, luminescence (AID 1990); assay type: functional, cell-based
[15] = HepG2 cell cytotoxicity, dose response, cytotoxicity control, ATP luminescence, cherry-pick, set 6 (AID 1053125); assay type: functional, cell-based
[16] = Luminescence Cell-Based Dose Response HTS to Identify Inhibitors of 5'UTR Stem-Loop Driven Prion Protein mRNA Translation in H4 Neuroglioblastoma Cells. [Related pubchem assays: 1827 (Project Summary), 1813 (Primary HTS)]; assay type: functional
[17] = YAP1 pathway inhibition via CTGF transcript levels, dose response, cell-based, DLD1 colon cancer, RT-qPCR, cherry-pick (AID 1053122); assay type: functional; conditions: Cancer cell lines
[18] = inhibitors of HIV Env-driven cell fusion, dose response, cherry-pick (AID 652057); assay type: functional, cell-based
[19] = inhibitors of clade B AD8 Env fusion, dose response, cell-based, cherry-pick (AID 652062); assay type: functional;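 also: luciferase signal from cell-cell fusion driven by HIV-1 clade B AD8 Env; potency is for inhibitors of fusion seen as a drop in luminescence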
[20] = P. falciparum Dd2 growth inhibitors, dose response, SYBR Green, cherry-picked samples (AID 1159567); assay type: functional, cell-based
[21] = T. cruzi growth inhibition in host cells, dose response, cell-based, plate reader, dry powder, set 2 (AID 652275); assay type: functional
[22] = ADAM10 protease inhibitors, dose response, selectivity assay for ADAM17 exosite inhibitor project, biochemical, FRET peptide substrate, recombinant human ADAM10 (AID 743259);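 also: ADAM10 enzyme cleaving a FRET peptide substrate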
[23] = target: T2, Disintegrin and metalloproteinase domain-containing protein 17; experiment: exosite inhibitors of ADAM17, dose response, biochemical (AID 743260)
[24] = LGR2 antagonists, dose response, cell-based, HEK293, CRE-luciferase reporter, cherry pick (AID 743342); assay type: functional

For `CC(C)(C)c1ccc(-c2cc(-c3ccccc3O)n[nH]2)cc1`, the IC50 [1] was 47.8 µM (inactive), the EC50 [2] was 1.81 µM (active) and the IC50 [3] was > 69.6 µM (inactive).

In the case of `CN(C)c1cc(NC(=O)Nc2ccccc2)c2ccccc2n1`, the IC50 [4] is reported as 69.5 µM (inactive), the IC50 (Mu-type opioid receptor) is reported as > 50 µM (inactive) and the IC50 [5] is reported as 32.6 µM (inactive). The IC50 [6] was 40 µM (inactive).

In the case of `Cc1onc(-c2c(F)cccc2Cl)c1C(=O)Nc1nnc(C(F)(F)F)s1`, the IC50 (cells) is reported as > 138 µM (inactive) and the IC50 (Major prion protein) is reported as 2.79 µM (active).

With `CCN1CCN(Cc2ccc(NC(=O)c3cccc(-c4ccc5nc(NC(=O)C6CC6)sc5n4)c3)cc2C(F)(F)F)CC1` the AC50 [7] was 3.22 µM (active), the AC50 [8] was 2.18 µM (active) and the AC50 [9] was 8.7 µM (active). For the same compound, the AC50 [10] was 5.27 µM (active) and the AC50 [11] was 5.08 µM (active).

For `Cc1ccc(NC(=O)Nc2ccnc(-c3cccnc3)n2)cc1`, the IC50 [12] was 27.8 µM (inactive), the EC50 [13] was 0.87 µM (active) and the EC50 [14] was 0.983 µM (active). For the same compound, the AC50 [15] was > 52 µM (inactive) and the EC50 [16] was > 120 µM (not active).

In the case of `N#C[C@@H]1[C@H](c2ccc(-c3cccc(F)c3)cc2)[C@H](CO)N1C(=O)NC1CCCC1`, the AC50 [17] is reported as > 26 µM (inactive), the AC50 [18] is reported as 39.5 µM (active) and the AC50 [19] is reported as 0.768 µM (active). For the same compound, the AC50 [20] was 2.84 µM (active).

With `CN(C)CC#Cc1cccc(-c2nc(C(=O)NCc3ccc(Oc4ccccc4)cc3)cc3c2[C@H](CCO)N([S+]([O-])C(C)(C)C)C3)c1` (stereo partly drawn) the AC50 [21] was 0.746 µM (active).

In the case of `C[C@H](CO)N1C[C@H](C)[C@H](CN(C)S(=O)(=O)c2cccs2)Oc2ccc(NC(=O)Nc3ccc4c(c3)OCO4)cc2CC1=O`, the IC50 [22] is reported as 13.8 µM (inactive) and the IC50 [23] is reported as > 69.5 µM (inactive).

With `C[C@H](CO)N1C[C@H](C)[C@H](CN(C)C(=O)Nc2ccccc2)OCCCC[C@H](C)Oc2ccc(NC(=O)C3CCCCC3)cc2C1=O` the AC50 [24] was 3.87 µM (active) and the AC50 [11] was 39.5 µM (active).
